The source made the active and inactive calls. The rule behind the calls is not given here.

For data set [1], the system named is E3 ubiquitin-protein ligase RNF149/Epidermal growth factor receptor (Homo sapiens), P00533+Q8NC42 [UNDEFINED MUTATION]. Kind of data set: SiHyT-mediated degrader activity at RNF149/EGFR mutant in human HCC827 cels assessed as induction of EGFR degradation at 0.1 uM cells incubated in serum-free media for 8 hrs followed by incubation with compound for 24 hrs by western blot analysis. Format: cell-based. (In western blotting, separated proteins are transferred to a membrane and probed.)
Sequence of E3 ubiquitin-protein ligase RNF149/Epidermal growth factor receptor (Homo sapiens), P00533+Q8NC42 [UNDEFINED MUTATION] (P00533 whole entry, looked up, stated change not applied): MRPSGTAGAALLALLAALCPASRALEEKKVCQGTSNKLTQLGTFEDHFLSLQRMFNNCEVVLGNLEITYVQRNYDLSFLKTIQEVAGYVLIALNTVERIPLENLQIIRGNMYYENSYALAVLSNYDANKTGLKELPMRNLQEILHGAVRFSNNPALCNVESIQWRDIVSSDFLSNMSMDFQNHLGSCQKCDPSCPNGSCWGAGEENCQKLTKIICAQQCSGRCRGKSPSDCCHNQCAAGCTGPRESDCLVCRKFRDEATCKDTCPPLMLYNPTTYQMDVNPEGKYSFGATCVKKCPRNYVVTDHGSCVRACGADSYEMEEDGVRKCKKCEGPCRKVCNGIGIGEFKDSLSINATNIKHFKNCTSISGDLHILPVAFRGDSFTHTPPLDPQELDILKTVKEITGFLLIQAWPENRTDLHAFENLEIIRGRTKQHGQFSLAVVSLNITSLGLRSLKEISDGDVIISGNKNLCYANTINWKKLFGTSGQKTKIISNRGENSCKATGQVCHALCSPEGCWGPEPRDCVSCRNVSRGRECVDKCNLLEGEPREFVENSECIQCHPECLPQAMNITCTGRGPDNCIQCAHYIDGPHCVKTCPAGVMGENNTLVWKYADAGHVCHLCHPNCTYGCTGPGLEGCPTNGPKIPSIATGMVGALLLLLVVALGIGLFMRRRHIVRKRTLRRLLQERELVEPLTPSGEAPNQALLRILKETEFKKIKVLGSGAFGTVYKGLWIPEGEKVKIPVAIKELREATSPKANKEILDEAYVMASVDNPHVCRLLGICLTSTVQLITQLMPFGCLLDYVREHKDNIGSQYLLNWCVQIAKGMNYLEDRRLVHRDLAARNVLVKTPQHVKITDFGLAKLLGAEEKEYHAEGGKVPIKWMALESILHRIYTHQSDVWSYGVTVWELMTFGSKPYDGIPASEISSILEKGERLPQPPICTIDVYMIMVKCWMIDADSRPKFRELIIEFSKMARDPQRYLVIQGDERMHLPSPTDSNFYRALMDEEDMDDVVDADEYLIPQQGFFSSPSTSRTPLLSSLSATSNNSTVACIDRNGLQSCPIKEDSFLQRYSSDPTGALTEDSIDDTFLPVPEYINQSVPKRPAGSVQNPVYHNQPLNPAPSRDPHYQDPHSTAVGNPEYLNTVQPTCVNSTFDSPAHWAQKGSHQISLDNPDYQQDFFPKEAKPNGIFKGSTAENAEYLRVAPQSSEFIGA
Sequence of E3 ubiquitin-protein ligase RNF149/Epidermal growth factor receptor (Homo sapiens), P00533+Q8NC42 [UNDEFINED MUTATION] (Q8NC42 whole entry, looked up, stated change not applied): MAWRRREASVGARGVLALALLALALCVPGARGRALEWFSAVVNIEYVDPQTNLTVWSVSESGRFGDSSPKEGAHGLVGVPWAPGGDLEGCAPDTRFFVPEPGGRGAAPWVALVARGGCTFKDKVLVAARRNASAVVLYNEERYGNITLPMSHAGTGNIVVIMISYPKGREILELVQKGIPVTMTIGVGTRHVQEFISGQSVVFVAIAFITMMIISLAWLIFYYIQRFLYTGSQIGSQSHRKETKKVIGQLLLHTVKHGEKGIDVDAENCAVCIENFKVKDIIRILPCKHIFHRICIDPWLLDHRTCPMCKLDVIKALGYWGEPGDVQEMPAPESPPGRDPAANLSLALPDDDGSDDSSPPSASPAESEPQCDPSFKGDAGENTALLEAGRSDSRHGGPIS

The test system of data set [2] is PC-9. Nature of the data set: SiHyT-mediated degrader activity at RNF149/EGFR mutant in human PC-9 cells assessed as induction of EGFR degradation by measuring decrease in EGFR level at 2 uM measured after 9 hrs by western blot analysis. Format: cell-based.
For data set [3], the system named is PC-9. Nature of the data set: SiHyT-mediated degrader activity at RNF149/EGFR mutant in human PC-9 cells assessed as induction of EGFR degradation by measuring decrease in EGFR level at 2 uM measured after 24 hrs by western blot analysis. Type of data set: cell-based.
For data set [4], the system named is E3 ubiquitin-protein ligase RNF149/Epidermal growth factor receptor (Homo sapiens), P00533+Q8NC42 [UNDEFINED MUTATION]. Nature of the data set: SiHyT-mediated degrader activity at RNF149/EGFR mutant in human HCC827 cells assessed as induction of EGFR degradation by measuring decrease in EGFR level at 1 uM measured after 9 hrs by western blot analysis. Format: cell-based.

For data set [5] the test system is unchanged. Nature of the data set: SiHyT-mediated degrader activity at RNF149/EGFR mutant in human HCC827 cells assessed as induction of EGFR degradation by measuring decrease in EGFR expression level at 1 uM pretreated with lysosome inhibitor, 3-MA for 4 hrs followed by incubation with compound for 24 hrs by western blot analysis. Format: cell-based.
For data set [6] the test system is unchanged. Nature of the data set: SiHyT-mediated degrader activity at RNF149/EGFR mutant in human HCC827 cells assessed as induction of EGFR degradation by measuring decrease in EGFR expression level at 1 uM pretreated with E1 ligase inhibitor, PYR41 for 4 hrs followed by incubation with compound for 24 hrs by western blot analysis. Format: cell-based.
Data set [7] has the same test system. Nature of the data set: SiHyT-mediated degrader activity at […] mutant in human HCC827 cells assessed as decrease in EGFR expression level at 2 uM measured after 12 hrs by proteomics analysis. Type of data set: cell-based.
Data set [8] concerns PC-9. Kind of data set: Antiproliferative activity against human PC-9 cells assessed as decrease in cell survival measured after 72 hrs by CCK-8 assay. Format: functional, cell-based. To be noted: PC-9, 72 h. Background: Tetrazolium dyes change colour on reduction, which living cells bring about.
Data set [9] has as its system HCC827. Kind of data set: Inhibition of colony formation in human HCC827 cells assessed as inhibition of malignant clonal growth at 0.5 to 1 uM measured after 7 days by crystal violet staining based analysis. Format: functional, cell-based. To be noted: dose 0.5-1 µM, time 7.0 day.
For data set [10], the system named is PC-9. Nature of the data set: Induction of cell cycle arrest in human PC-9 cells assessed as increase in cell accumulation at G1 phase at 0.5 to 2 uM incubated for 24 hrs by propidium iodide staining based flow cytometry. Type of data set: functional. The following applies: dose 0.5-2 µM. In general terms: In flow cytometry, cells or beads pass a laser one at a time.

For data set [11], the system named is HCC827. Kind of data set: Induction of cell cycle arrest in human HCC827 cells assessed as increase in cell accumulation at G1 phase at 0.5 to 2 uM incubated for 24 hrs by propidium iodide staining based flow cytometry. Type of data set: functional. The following applies: dose 0.5-2 µM.
Data set [12] concerns HCC827. Kind of data set: Induction of apoptosis in human HCC827 cells at 0.5 to 2 uM incubated for 48 hrs by AnnexinV-FITC/PI staining based flow cytometry. To be noted: dose 0.5-2 µM. Type of data set: functional, cell-based.
Data set [13] is described as follows: Intrinsic clearance of the compound in mouse liver microsomes at 1 uM in presence of NADPH by LC-MS/MS analysis. To be noted: read-out: CLH. Format: ADME, Microsome.
Data set [14] is described as follows: AUC in ICR mouse at 10 mg/kg, po by LC-MS/MS analysis. Format: ADME, organism-based. To be noted: in vivo.
Data set [15] concerns Mus musculus. Kind of data set: In vivo induction of EGFR mutant degradation in tumor of mouse xenografted with human PC-9 cells assessed as decrease in EGFR expression at 10 mg/kg, po measured after 6 to 48 hrs by immunoblot analysis. Format: functional, organism-based. The following applies: time 6-48 hrs.
Data set [16] can be described thus: Toxicity in mouse assessed as pathological changes in spleen administered for 14 days by Hematoxylin-Eosin staining based analysis. Format: tissue-based. The following applies: in vivo, 336 h, time 14 day.
Data set [17] is described as follows: Toxicity in mouse assessed as pathological changes in lungs administered for 14 days by Hematoxylin-Eosin staining based analysis. The following applies: in vivo, 336 h, time 14 day.
Data set [18] deals with PC-9. Nature of the data set: Induction of interaction between RNF149/EGFR mutant in human PC-9 cells measured after 6 hrs by co-immunoprecipitation analysis. Format: cell-based.
The target in data set [19] is Epidermal growth factor receptor (Homo sapiens) (UniProt P00533). Kind of data set: Induction of EGFR mutant degradation in human PC-9 cells transfected with RNF149 shRNA at 1 uM by western blot analysis. Type of data set: cell-based.
Sequence of Epidermal growth factor receptor (Homo sapiens) (P00533 whole entry): as the sequence (P00533 whole entry, looked up, stated change not applied) above
For data set [20], the system named is PC-9. Kind of data set: Binding affinity to RNF149/EGFR mutant in human PC-9 cells at 2 uM incubated for 4 hrs by CETSA analysis. Type of data set: cell-based.
The test system of data set [21] is HEK-293T. Kind of data set: Cytotoxicity against human HEK293T cells assessed as reduction in cell viability. Type of data set: toxicity, cell-based.
In data set [22] the test system is L02. Nature of the data set: Cytotoxicity against human LO2 cells assessed as reduction in cell viability. Format: toxicity, cell-based.
The subject of data set [23] is HUVEC. Nature of the data set: Cytotoxicity against human HUVEC cells assessed as reduction in cell viability. Format: toxicity, cell-based.

As a reminder, the IC50 is the point on the concentration scale where inhibition reaches its midpoint. As for `COc1cc2ncnc(Nc3ccc(F)c(Cl)c3)c2cc1OCCn1cc(CCCO[Si](c2ccccc2)(c2ccccc2)C(C)(C)C)nn1`, the Activity in data set [1] was 54.6%; in data set [10], “Dose-dependent-effect”; in [11] it was “Dose-dependent-effect”; in [12], “Dose-dependent-effect”; in data set [16], “Non-toxic”; in data set [17] it was “Non-toxic”. The Activity entry in data set [21], in data set [22] and in data set [23] was “Toxic” each time. For the same compound, the outcome in data set [2], in data set [3], in data set [4], in data set [5], in [7] and in [15] was Active. The outcome in data set [18] and in data set [20] was Active. Besides, the result in data set [6] and in data set [19] was inactive. The half-inhibitory concentration (IC50) in data set [8] turned out to be 340 nM. The inhibition entry in data set [9] is “Active”. Besides, the CLint scaled at 1 µM in [13] is 21.9 mL/min/kg. The same compound displayed an AUC in [14] of 1876.65 ng·mL·h.
